Tests used:
[1] = system: E6E7/Ras cells; experiment: Extracellular acidification rate (ECAR), Seahorse XF24; assay type: cell-based, mouse; settings: added at point B with additional glucose
Description: FIG. 6 illustrates the reduction of extracellular acidification rate (ECAR) by prodrugs AT-N4-001 and AT-N4-002. (A) ECAR was measured using a Seahorse XF24 instrument. At time point A glucose was added to the cultures. At time point B the indicated drugs were added with additional glucose. At time point C 2-deoxyglucose was added to block glycolysis. (B) Bar graph of ECAR at the time point indicated as Rate 8 in A.
AT-N4-001 and AT-N4-002 should each release two molecules of DCA and one molecule of oxamate. Both DCA and oxamate are expected to reduce cellular lactate production. Therefore, we examined the changes in lactate after treatment of E6E7/Ras cells with the prodrugs. E6E7/Ras cells were seeded into 100 mm dishes and the next day treated with 5 mM AT-N4-001, 5 mM AT-N4-002, 5 mM DCA plus 5 mM oxamate, or 5 mM DCA alone. Culture medium was collected after 4 hours of treatment and lactate levels were determined (FIG. 5). […] To confirm the effects of these compounds on lactate production, the extra cellular acidification rate (ECAR) was measured using a Seahorse XF24 Extracellular Flux analyzer. Since lactate is transported from cells together with a proton, acidification of the culture medium (ECAR) is an estimate of lactate production and the glycolytic rate of cells. In the experiment shown in FIG. 6A, ECAR measurements were initiated in the absence of glucose. […]

[2] = system: HPV+ HNSCC tumor; experiment: Intratumoral pH and tumor lactate; assay type: in vivo, wild-type mice
Description: FIG. 11 illustrates the effect of prodrug on tumor pH and tumor lactate. (A) Intratumoral pH in living animals was determined by inserting a needle pH electrode directly into the tumor. The pH was read at 3 different depths in each tumor. Each marker on the graph represents a separate pH measurement. The bar represents the mean and the error bars the standard deviation. (B) Frozen sections of excised tumors were used to estimate lactate levels in the tumor microenvironment. This was performed using the In Vivo Xtreme imager to visualize lactate-dependent luciferase activity as described by Broggini-Tenzer et al. [Metabolism of tumors under treatment: mapping of metabolites with quantitative bioluminescence. Radiother Oncol 99, 398-403 (2011)]. (C) Plot of lactate measurements in B. Each marker represents one tumor. The bar represents the mean and the error bars the standard deviation.
The ability of DCA and oxamate to enhance survival in wild-type mice following chemoradiation correlates closely with their ability to reduce tumor lactate. We therefore examined the ability of the prodrug AT-N4-002 to reduce tumor lactate. Wild-type tumor bearing mice were treated with either CRT or CRT followed by one week of daily ip injection of AT-N4-002. Lactate is exported from cells together with a proton and therefore promotes acidification of the tumor microenvironment. Intratumoral pH was measured with a needle pH electrode. […] (FIG. 11B,C).

[3] = system: HPV+ HNSCC tumor; experiment: IHC of tumors for cleaved caspase 3 and Ki67; assay type: in vivo, wild-type mice; settings: one week treatment plus one round of CRT
From the text: FIG. 10 illustrates Effect of AT-N4-002 on tumor cell apoptosis and cell proliferation. (A) Sections of tumors from mice treated either with chemo-radiation (Tx) or chemoradiation plus AT-N4-002 were subjected to IHC to detect cleaved caspase 3 or Ki67. (B) Cleaved caspase 3 positive cells were counted in 5 random fields from the IHC experiment shown in A. (C) The percent of Ki67 positive cells from the IHC experiment shown in A.
To examine potential direct, immune-independent effects of the prodrug on tumors, tumor bearing wild-type mice were treated for one week with AT-N4-002 plus one round of chemoradiation. Tumors were then harvested and processed for immunohistochemical detection of Ki67, a proliferation marker, and cleaved caspase 3, a marker for apoptosis (FIG. 10). […] Such direct effects on the tumor cells could be responsible for the reduced tumor growth observed in immune deficient mice.

[4] = system: HPV+ HNSCC tumor; experiment: Tumor growth and survival with chemoradiation in RAG-1 immune-deficient mice; assay type: in vivo, RAG-1 mice; settings: in combination with chemoradiation
Description: FIG. 9 illustrates the effect of AT-N4-002 prodrug on tumor growth (A) and animal survival (B) in RAG-1 immune-deficient mice. Treatment conditions are the same as those described in FIG. 7.
To examine whether the prodrug AT-N4-002 also requires an immune response to control tumor growth, experiments were performed in RAG-1 mice. Based on our previous experience with DCA, we hypothesized that survival and tumor clearance would not be observed in these immune deficient mice following treatment with AT-N4-002. […] These immune-independent effects of AT-N4-002 on tumor growth in immune-deficient mice could be due to direct effects on tumor cell growth or cell death as described in Example 9, below.

[5] = CRT followed by one week of daily ip injection

NC(=O)C(=O)OCC(COC(=O)C(Cl)Cl)OC(=O)C(Cl)Cl (centres unmarked) [AT-N4-002, 3-(2-amino-2-oxoacetoxy)propane-1,2-diyl bis(2,2-dichloroacetate)]
increase in ECAR after glucose addition (FIG. 6) [1]: completely blocked
intratumoral pH compared to CRT group (FIG. 11A) [2, 5]: significantly higher
tumor lactate (FIG. 11B,C) [2, 5]: decreased tumor lactate
lactate production and acidity in tumor tissues versus DCA plus oxamate ([2]; separate in vivo experiment, data not shown): more effective in reducing lactate production and acidity in tumor tissues than DCA plus oxamate
Ki67 positive cells in tumor (FIG. 10C) [3]: appeared to decrease
cleaved caspase 3 positive cells in tumor compared to CRT alone (FIG. 10B) [3]: significantly increased
survival in RAG-1 mice (FIG. 9B) [4]: lengthened survival
tumor growth in RAG-1 mice (FIG. 9A) [4]: slowed tumor growth

Reference: patent publication US9556113B2, “Combination uses of dichloroacetate and oxamate, and their prodrugs, for cancer treatment” (The South Dakota Board of Regents, priority 2014, dated 2017)
